This assay relates to HCV replicon (Renilla luciferase) in HUH-7 cells. The assay is described as follows: HCV replicon luciferase reporter assay. It is filed as cell-based, Hepatitis C virus (strain 1b). The settings on record: Huh-7, 96 h, 4 days. The source says: As a secondary assay, EC50 determinations from the replicon FRET assay were confirmed in a replicon luciferase reporter assay. Utilization of a replicon luciferase reporter assay was first described by Krieger et al (Krieger N, Lohmann V, and Bartenschlager R, J. Virol. 75(10):4614-4624 (2001)). The replicon construct described for our FRET assay was modified by inserting cDNA encoding a humanized form of the Renilla luciferase gene and a linker sequence fused directly to the 3′-end of the luciferase gene. This insert was introduced into the replicon construct using an Asc1 restriction site located in core, directly upstream of the neomycin marker gene. The adaptive mutation at position 1179 (serine to isoleucine) was also introduced (Blight K J, Kolykhalov, A A, Rice, C M, Science 290(5498): 1972-1974). A stable cell line constitutively expressing this HCV replicon construct was generated as described above. […] Following 4 days in a 37° C./5% CO2 incubator, cells were analyzed for Renilla Luciferase activity using the Promega Dual-Glo Luciferase Assay System. […] Plates were read on a Packard TopCount NXT using a luminescence program.
The percentage inhibition was calculated using the formula below: […]
The values were graphed and analyzed using XLfit to obtain the EC50 value.
A general note: Replicon systems follow genome replication, usually without infectious particles.

The record followed here is patent US7323447B2, “Hepatitis C virus inhibitors” (Bristol-Myers Squibb Company, priority 2005, dated 2008).

Molecules are shown by their SMILES. pEC50: −log10 of the molar value.

Compound `C=C[C@@H]1C[C@]1(NC(=O)[C@@H]1C[C@@H](OC(=O)N2Cc3cccc(F)c3C2)CN1C(=O)[C@@H](OC(=O)NC(C)(C)C)C(C)(C)C)C(=O)NS(=O)(=O)C1CC1` [Example 56Compound 56] showed a negative-log EC50 (pEC50) of 6.61.

In general, pEC50 refers to the negative decadic logarithm of the EC50, by convention in mol/L. A high value points to a low EC50.
